According to patent US20120277199A1, “Modulation of Gel Temperature of Poloxamer-Containing Formulations” (Otonomy, Inc., priority 2009, published 2012):
Converted amounts (≈) assume the structure as drawn. Each block holds one compound with its values, some of them ahead of it.

Columns and labels:
[1] = In vitro dissolution in snapwells, mean dissolution time (MDT); type: physicochemical
Experimental: Dissolution was performed at 37° C. in snapwells (6.5 mm diameter polycarbonate membrane with a pore size of 0.4 μm). […] Samples were taken every hour (0.1 mL withdrawn and replaced with warm buffer).
Dissolution is performed at 37° C. in snapwells (6.5 mm diameter polycarbonate membrane with a pore size of 0.4 μm), 0.2 mL of a gel formulation described herein is placed into snapwell and left to harden, then 0.5 mL buffer is placed into reservoir and shaken using a Labline orbit shaker at 70 rpm. Samples are taken every hour (0.1 mL withdrawn and replace with warm buffer). […] Pluronic concentration is analyzed at 624 nm using the cobalt thiocyanate method.
The mean dissolution time (MDT) is the sum of different periods of time the drug molecules stay in the matrix before release, divided by the total number of molecules and is optionally calculated by:
Dissolution was performed at 37° C. in snapwells (6.5 mm diameter polycarbonate membrane with a pore size of 0.4 μm), 0.2 mL of formulation was placed into snapwell and left to harden, then 0.5 mL of 0.9% saline was placed into reservoir and shaken using a Labline orbit shaker at 70 rpm. Samples were taken every hour (0.1 mL withdrawn and replace with warm buffer). Samples analyzed for dexamethasone and ciprofloxacin concentration by UV at 245 and 270 nm, respectively using a Evolution 160 UV/Vis spectrophotometer (Thermo Scientific). Quantitation performed against an external calibration standard.
Dissolution was performed at 37° C. in snapwells (6.5 mm diameter polycarbonate membrane with a pore size of 0.4 μm), 0.2 mL of gel was placed into snapwell and left to harden, 0.5 mL of 0.9% saline was placed into reservoir and shaken using a Labline orbit shaker at 70 rpm. Samples were taken every hour (All the saline withdrawn and replace with warm 0.9% saline with an osmolality of 290 mOsm). Samples were analyzed for Ciprofloxacin by HPLC.

[2] = Perilymph pharmacokinetics after intratympanic injection in guinea pigs; details: guinea pig, in vivo
Experimental: Guinea pigs were administered 50 μl via intratympanic delivery and PK in the perilymph was measured as described herein.
Female guinea pigs (Charles River) weighing 200-300 g, of approximately 6-8 weeks of age are used (N=4 per group). Prior to any procedure, animals are anesthetized using a combination of xylazine (10 mg/kg), ketamine (40 mg/kg) and acepromazine (0.75 mg/kg) for up to an hour via the intramuscular route. If needed, an intraoperative booster is administered intraperitoneally representing one-tenth of the original dose. Intratympanic injection—Each animal is positioned so that the head is tilted at an angle to favor injection towards the round window niche. Briefly, under visualization with an operating microscope, 50 μl of formulations comprising 0 to 50% active agent and varying concentrations of P407 are administered to the animals. […] During the procedure and until recovery, animals are placed on a temperature controlled (40° C.) heating pad until consciousness is regained at which time they are returned to the vivarium. Perilymph sampling procedure—The skin behind the ear of anesthetized guinea pigs is shaved and disinfected with povidone-iodine. An incision is then made behind the ear, and muscles are carefully retracted from over the bulla. […]
Determination of active agent concentrations is performed using high pressure liquid chromatography (HPLC) combined with mass spectrometry detection (MS). […] The samples are analyzed by reversed phase HPLC (1100 series, Agilent) using an Atlantis dC18 column maintained at 40° C. The mobile phase is nebulized using heating nitrogen in a Z-spray source/interface and the ionized compounds detected using MS/MS (Tandem quadrupole mass spectrometer, Quattro Ultima, Waters). Peak heights of an active agent are determined using MassLynx software (Waters). […]
Pharmacokinetic parameters are calculated using conventional noncompartmental pharmacokinetic methods. The apparent clearance (CL app) is calculated as the ratio between the administered intratympanic dose and the exposure (AUC). […]

physchem = details: aqueous with cosolvent or surfactant or cyclodextrin, thermodynamic from solid
Experimental: In addition, modifying the solubility of the active agent can also have an effect on the properties of the thermosensitive gel.
A formulation comprising 0.5% w/w SP600125 in 16% Poloxamer 407 was made by dispersing 5.3 mg of SP600125 (LC Labs) in 994.7 mg of a 16% P407 in 50 mM Tris buffer.

[3] = cited from earlier work
[4] = systemically administered (oral or intravenously); cited from earlier work
[5] = Stability to autoclaving (impurity profile, assay, pH, osmolality, appearance); type: physicochemical; details: autoclaving at 250° F. for 30 minutes in P407
Experimental: Cold 16% P407 in 50 mM TRIS buffers-saline (pH 7.4 and osmolality of 280 mOsM) was placed in a open container, then ciprofloxacin free base or ciprofloxacin free base hydrate (3.5 moles) was sprinkled in while mixing. Ciprofloxacin suspension was mixed for not less than 10 minutes, then micronized dexamethasone was added slowly to the mixture while mixing. The homogenous suspension was then transferred to 3 mL vials and filled at different volumens (v1=4 g, v2, 3 g and v3 2 g). The glass vial were sealed with West stoppers (fluorotec coated) and Aluminum seals, followed by autoclaving at 250° F. for 30 minutes.
Weigh 58.8 g of the above buffer, chill down, then sprinkle while mixing 11.291 g of poloxamer 407 NF (BASF lot WPNF580C), mix until fully dissolved. Weigh 64.8 g of a the 16% P407 (above solution) into a 100 mL glass bottle containing a 35 mm stir bar then sprinkle 2.2915 g of ciprofloxacin hydrate (Neuland lot CHI071000). Mix for not less than 2 hours at a setting of 11 (IKA stir plate) minutes while cooling then fill 31 two mL vials with approximately 2 g of suspension, stopper them with 13 mm West stoppers and seal them with Al seal, autoclave for 30 minutes @ 250° C.

SMILES: O=C1c2ccccc2-c2n[nH]c3cccc1c23 [SP600125, anthra[1,9-cd]pyrazol-6(2H)-one]
solubility (physchem): ~190 µg/mL (≈ 863 µM)
reported water solubility [3]: 11 µg/mL
LogD (7.4) ([3]; pH 7.4): 3.2

SMILES: O=P(O)(O)C(O)(Cn1ccnc1)P(=O)(O)O [Zoledronate]
in vitro mean dissolution time (MDT) ([1]; 16% P407 formulation, FIG. 6): 2 h
amount reaching the perilymph in the inner ear and/or otic bone structure [4]: about 0.1 ng/day

SMILES: CN(C)CCC=C1c2ccccc2CCc2ccccc21 [amitriptyline]
water solubility [3]: greater than 100 mg/mL

SMILES: O=C(O)c1cn(C2CC2)c2cc(N3CCNCC3)c(F)cc2c1=O [ciprofloxacin free base hydrate, ciprofloxacin hydrate]
change observed after autoclaving ([5]; hydrate): minimal growth or recrystallization

SMILES: Cc1cccc(CN2CCN(C(c3ccccc3)c3ccc(Cl)cc3)CC2)c1 (stereo not shown) [meclizine]
solubility in water [3]: insoluble in water

SMILES: O=P(O)(O)C(O)(Cc1cccnc1)P(=O)(O)O [rosidronate]
amount reaching the perilymph in the inner ear and/or otic bone structure [4]: about 0.6 ng/day

Now from value to compound:

MDT ([1]; 17% Poloxamer 407 formulation): about 3 h
MDT ([1]; DSP aqueous solution, micronized DEX suspension in water (no poloxamer)): 0.3 h
SMILES: C[C@@H]1C[C@H]2[C@@H]3CCC4=CC(=O)C=C[C@]4(C)[C@@]3(F)[C@@H](O)C[C@]2(C)[C@@]1(O)C(=O)COP(=O)(O)O [DSP, dexamethasone sodium phosphate]

MDT ([1]; 17% Poloxamer 407 formulation): about 3 h
peak methylprednisolone levels in the perilymph [2]: 6.5 µg/mL
SMILES: C[C@H]1C[C@@H]2[C@H]([C@@H](O)C[C@@]3(C)[C@H]2CC[C@]3(O)C(=O)COC(=O)CCC(=O)[O-])[C@@]2(C)C=CC(=O)C=C12.[Na+] [MPS]

decrease of perilymph levels after peak [2]: decreased slowly over 10 days
peak methylprednisolone levels in the perilymph [2]: 19.2 µg/mL
SMILES: C[C@H]1C[C@@H]2[C@H]([C@@H](O)C[C@@]3(C)[C@H]2CC[C@]3(O)C(=O)CO)[C@@]2(C)C=CC(=O)C=C12 [MP]

change observed after autoclaving [5]: appreciable particle size increase
SMILES: O=C(O)c1cn(C2CC2)c2cc(N3CCNCC3)c(F)cc2c1=O [ciprofloxacin free base, ciprofloxacin]
